Molecular target: T1, glucocerebrosidase (Gcase) (Homo sapiens, UniProt P04062)
T1 construct: micellar solution containing 10 nM GCase and 100 nM saposin C
T1 sequence (P04062 40-536): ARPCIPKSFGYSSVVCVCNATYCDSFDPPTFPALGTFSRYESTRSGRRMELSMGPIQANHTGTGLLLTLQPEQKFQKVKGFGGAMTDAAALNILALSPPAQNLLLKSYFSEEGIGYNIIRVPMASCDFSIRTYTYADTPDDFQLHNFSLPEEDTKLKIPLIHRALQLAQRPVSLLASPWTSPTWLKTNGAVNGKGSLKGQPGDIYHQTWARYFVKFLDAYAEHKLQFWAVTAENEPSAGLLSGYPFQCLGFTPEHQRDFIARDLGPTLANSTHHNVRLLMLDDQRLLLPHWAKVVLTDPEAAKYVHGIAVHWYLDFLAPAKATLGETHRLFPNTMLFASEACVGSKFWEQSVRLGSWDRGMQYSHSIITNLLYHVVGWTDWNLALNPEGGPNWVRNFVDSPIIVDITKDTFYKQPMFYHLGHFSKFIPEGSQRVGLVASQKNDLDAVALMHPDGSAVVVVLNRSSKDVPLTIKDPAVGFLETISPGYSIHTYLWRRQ
Assay: Glucocerebrosidase (Gcase) activation assay, 4-methylumbelliferyl-beta-D-glucopyranoside substrate, with saposin C
Type: biochemical
Settings: 0.25 h; for activation at 0.1 µM: read-out: Percent Gcase Activation 0.1 μM Test Compound; for activation at 1 µM: read-out: Percent Gcase Activation 1 μM Test Compound
Method: The ability of exemplary compounds to activate glucocerebrosidase (Gcase) was measured.
A 484 μL aliquot of a 1.0 mg/mL solution of phosphatidylserine (PS) (Sigma P7769) in chloroform was evaporated under a stream of nitrogen for 1 hour. The lipid film was dissolved over 4 minutes of vigorous vortexing in 40 mL of 176 mM K2HPO4/50 mM citric acid (pH 4.7) containing 7.5 μL of triton X-100, resulting in a mixed micellar preparation with a composition of 0.32 mM triton and 0.37 mol % PS. 4-Methylumbelliferyl-beta-D-glucopyranoside (ACROS-337025000) was dissolved in the micellar solution to a final concentration of 2 mM for use as the reaction substrate.
Test compounds were diluted to the desired concentrations with dimethylsulfoxide (DMSO) from 10 mM stocks, and 0.41 μL of the DMSO compound mixture was added to 100 μL of micellar solution containing 10 nM GCase and 100 nM saposin C (Enzo ALX-201-262-C050). Pre-incubation was allowed to occur for 30 minutes at room temperature, after which the reaction was initiated by combining 25 μL of substrate solution with 25 μL of compound/GCase/saposin mixture. The reaction proceeded for 15 minutes at room temperature and was stopped by adding 150 μL of 1M glycine, pH 12.5. The endpoint of the reaction was monitored by measuring fluorescence intensity (excitation: 365 nm; emission: 440 nm) on a SpectraMax i3 instrument (Molecular Devices). Test compounds were screened at 1.0 and 0.1 μM final concentration, and subsequent 8-point dose response curves were obtained using 3-fold dilutions from a maximum final concentration of 5 μM.
The symbol “+” indicates less than 5% Gcase activation; the symbol “++” indicates Gcase activation in the range of 5% up to 20%; and the symbol “+++” indicates Gcase activation greater than 20%.

Compound | activation at 0.1 µM [%] | activation at 1 µM [%]
Cc1cc(C)c2ncc(C(=O)NC(C)(C)C3CC3)n2n1 | 5 to 20 | > 20
Cc1cc(C)c2cnc(C(=O)NC(C3CC3)C(F)(F)F)n2n1 (stereo not shown) | < 5 | > 20
Cc1cc(-c2ccccn2)nc2c(C(=O)NC(C3CC3)C(F)(F)F)nsc12 (stereo not shown) | < 5 | 5 to 20
Cc1cc(C)c2occ(C(=O)NC3CCCc4ccccc43)c2n1 (stereo not shown) [5,7-Dimethyl-N-(1,2,3,4-tetrahydronaphthalen-1-yl)furo[3,2-b]pyridine-3-carboxamide] | > 20 | > 20
CCC(NC(=O)c1coc2c(C)cc(C)nc12)c1ccccc1 (stereo not shown) [5,7-Dimethyl-N-(1-phenylpropyl)furo[3,2-b]pyridine-3-carboxamide] | > 20 | > 20
Cc1cc(-c2sccc2C#N)nn2c(C(=O)N[C@@H](C3CC3)C(F)(F)F)cnc12 | > 20 | > 20
Cc1cc(-c2ccc(C#N)o2)nn2c(C(=O)N[C@H](C3CC3)C(F)(F)F)cnc12 | > 20 | > 20
Cc1cc(C)c2onc(C(=O)Nc3ccc4c(c3)CCC4)c2n1 [N-(2,3-Dihydro-1H-inden-5-yl)-5,7-dimethylisoxazolo[4,5-b]pyridine-3-carboxamide] | 5 to 20 | > 20
Cc1cc(-c2ccc3ocnc3c2)nn2c(C(=O)N[C@@H](C)C(F)(F)F)cnc12 | > 20 | > 20
Cc1cc(-c2cncc(Cl)c2)nn2c(C(=O)N[C@H](C3CC3)C(F)(F)F)cnc12 | > 20 | > 20
Cc1cc(-c2cccnc2)nc2c(C(=O)NC(C3CC3)C(F)(F)F)csc12 (stereo not shown) | > 20 | > 20
Cc1cc(C)c2scc(C(=O)NC(C3CC3)C(F)(F)F)c2n1 (stereo not shown) | > 20 | > 20
Cc1cc(C#N)c(-c2cc(C)c3ncc(C(=O)N[C@H](C)C(F)(F)F)n3n2)o1 | 5 to 20 | > 20
Cc1cc(-c2cccc3ocnc23)nn2c(C(=O)NC(C3CC3)C(F)(F)F)cnc12 (stereo not shown) | 5 to 20 | > 20
Cc1cc(-c2cccc(C(N)=O)c2)nc2c(C(=O)NC(C3CC3)C(F)(F)F)nsc12 (stereo not shown) | < 5 | 5 to 20
CCC(NC(=O)c1ncc2c(C)cc(C)nn12)c1ccccc1 (stereo not shown) | < 5 | > 20
Cc1cc(C)c2cnc(C(=O)Nc3ccc4c(c3)CCC4)n2n1 | > 20 | > 20
Cc1cc(C)c2cnc(C(=O)Nc3ccc(-c4cocn4)cc3)n2n1 | < 5 | > 20
Cc1cc(-c2ccc3ocnc3c2)nn2c(C(=O)NC(C)C3CC3)cnc12 (stereo not shown) | > 20 | > 20
Cc1cc(-c2cccc(F)c2)nn2c(C(=O)N[C@@H](C3CC3)C(F)(F)F)ncc12 [(S)—N-(1-Cyclopropyl-2,2,2-trifluoroethyl)-2-(3-fluorophenyl)-4-methylimidazo[1,5-b]pyridazine-7-carboxamide] | > 20 | > 20
Cc1cc(C)c2ncc(C(=O)Nc3ccc4c(c3)CCC4)n2n1 | 5 to 20 | > 20

Results, then the molecule that gave them:

activation at 0.1 µM [%] | activation at 1 µM [%] | Compound
5 to 20 | > 20 | Cc1cc(-c2ccc(F)cc2C#N)nn2c(C(=O)NC(C)C(F)(F)F)cnc12 (stereo not shown)
> 20 | > 20 | COc1cccc(-c2cc(C)c3ncc(C(=O)NC(C4CC4)C4CC4)n3n2)c1
> 20 | > 20 | Cc1cc(-c2ccc3ocnc3c2)nn2c(C(=O)N[C@@H](C3CC3)C(F)(F)F)cnc12
5 to 20 | > 20 | Cc1cc(-c2cccc(F)c2)nn2c(C(=O)NC(C)C(F)(F)F)cnc12 (stereo not shown)
> 20 | > 20 | Cc1cc(-c2ccc3ocnc3c2)nn2c(C(=O)NC(C3CC3)C(F)(F)F)cnc12 (stereo not shown)
5 to 20 | > 20 | Cc1cc(-c2ccc(F)cc2C#N)nn2c(C(=O)NC(C3CC3)C(F)(F)F)cnc12 (stereo not shown)
5 to 20 | > 20 | Cc1cc(C)c2onc(C(=O)NC3CCCc4ccccc43)c2n1 (stereo not shown) [5,7-Dimethyl-N-(1,2,3,4-tetrahydronaphthalen-1-yl)isoxazolo[4,5-b]pyridine-3-carboxamide]
5 to 20 | > 20 | COc1cncc(-c2cc(C)c3ncc(C(=O)N[C@H](C4CC4)C(F)(F)F)n3n2)c1
< 5 | > 20 | Cc1cc(C)c2ncc(C(=O)Nc3ccc(-c4cocn4)cc3)n2n1
< 5 | > 20 | Cc1cc(N2CC(C(C)C)OC2=O)nn2c(C(=O)N[C@@H](C3CC3)C(F)(F)F)cnc12 (stereo partly drawn) [N—((S)-1-Cyclopropyl-2,2,2-trifluoroethyl)-6-(5-isopropyl-2-oxooxazolidin-3-yl)-8-methylimidazo[1,2-b]pyridazine-3-carboxamide]
5 to 20 | > 20 | Cc1cc(-c2ccc(F)cc2C#N)nn2c(C(=O)N[C@@H](C3CC3)C(F)(F)F)ncc12 [(S)-2-(2-Cyano-4-fluorophenyl)-N-(1-cyclopropyl-2,2,2-trifluoroethyl)-4-methylimidazo[1,5-b]pyridazine-7-carboxamide]
5 to 20 | > 20 | Cc1cc(C)c2ncc(C(=O)NC3(C)CCCc4ccccc43)n2n1 (stereo not shown)
5 to 20 | > 20 | Cc1cc(N2CCN(C(C)C)C2=O)nn2c(C(=O)N[C@@H](C3CC3)C(F)(F)F)ncc12 [(S)—N-(1-Cyclopropyl-2,2,2-trifluoroethyl)-2-(3-isopropyl-2-oxoimidazolidin-1-yl)-4-methylimidazo[1,5-b]pyridazine-7-carboxamide]
< 5 | 5 to 20 | O=C(Nc1ccc2c(c1)CCC2)c1cnc2ccc(Cl)nn12
> 20 | > 20 | Cc1cc(-c2cccc(C#N)c2)nn2c(C(=O)NC(C3CC3)C(F)(F)F)cnc12 (stereo not shown)
5 to 20 | > 20 | Cc1cncc(-c2cc(C)c3ncc(C(=O)N[C@H](C4CC4)C(F)(F)F)n3n2)c1
> 20 | > 20 | Cc1cc(C)c2snc(C(=O)NC3CCCc4ccccc43)c2n1 (stereo not shown) [5,7-Dimethyl-N-(1,2,3,4-tetrahydronaphthalen-1-yl)isothiazolo[4,5-b]pyridine-3-carboxamide]
5 to 20 | > 20 | CCC(NC(=O)c1nsc2c(C)cc(C)nc12)c1ccccc1 (stereo not shown) [5,7-Dimethyl-N-(1-phenylpropyl)isothiazolo[4,5-b]pyridine-3-carboxamide]
> 20 | > 20 | Cc1cc(C#N)c(-c2cc(C)c3ncc(C(=O)N[C@@H](C)C(F)(F)F)n3n2)o1
5 to 20 | > 20 | Cc1ccc(-c2cc(C)c3ncc(C(=O)N[C@H](C4CC4)C(F)(F)F)n3n2)cn1 [(R)-6-(6-Methylpyridin-3-yl)-N-(1-cyclopropyl-2,2,2-trifluoroethyl)-8-methylimidazo[1,2-b]pyridazine-3-carboxamide]
5 to 20 | > 20 | Cc1cc(-c2ccc(F)cc2)nn2c(C(=O)N[C@@H](C)C3CC3)cnc12
5 to 20 | > 20 | Cc1cc(C)c2onc(C(=O)NC(C)(C)C3CC3)c2n1 [N-(2-Cyclopropylpropan-2-yl)-5,7-dimethylisoxazolo[4,5-b]pyridine-3-carboxamide]
> 20 | > 20 | Cc1cc(-c2ccc(C#N)o2)nn2c(C(=O)N[C@@H](C3CC3)C(F)(F)F)cnc12
5 to 20 | > 20 | Cc1cc(-c2ccc3c(c2)ncn3C)nn2c(C(=O)N[C@H](C3CC3)C(F)(F)F)cnc12
< 5 | > 20 | Cc1cc(-c2cccc3ncoc23)nn2c(C(=O)NC(C)C(F)(F)F)cnc12 (stereo not shown)
> 20 | > 20 | Cc1cc(-c2cncc(Cl)c2)nn2c(C(=O)N[C@@H](C3CC3)C(F)(F)F)cnc12

Source: US11168087B2, “Substituted imidazo[1,2-b]pyridazines, substituted imidazo[1,5-b]pyridazines, related compounds, and their use in the treatment of medical disorders” (BIAL—R&D Investments, S.A., priority 2016, dated 2021)
